According to patent US20120093726A1, “Radiolabeled Fluorine Derivatives of Methionine” (priority 2009, published 2012):

Legend:
[1] = test system: various types of tumour cells; assay: Cell uptake study, panel of tumour cell lines; format: cell-based, human; conditions: for uptake into tumour cells: particularly MCF-7, U87MG, MiaPaCa2 and A375 cell lines
Description: (§1) The human A375 (malignant melanoma), A431 (epidermoid carcinoma), HT29 (colorectal adenocarcinoma), MCF-7 (breast adenocarcinoma), MDA-MB-231 (breast adenocarcinoma), PC-3 (prostate adenocarcinoma) tumour cells were grown in RPMI-1640 medium supplemented with 10% fetal bovine serum (FBS) and 2 mM L-glutamine. The human H460 (large cell lung carcinoma) cell line was grown in RPMI-1640 supplemented with 10% FBS, 1 mM L-glutamine and 1 mM sodium pyruvate. The MiaPaCa2 human pancreatic carcinoma cell line was grown in Dulbecco's Modified Eagle medium supplemented with 10% FBS, 2.5% horse serum, 1 mM L-glutamine and 1 mM sodium pyruvate. The human U87MG glioblastoma cell line was cultured in Minimum Essential Medium supplemented with 10% FBS, 2 mM L-glutamine and 1 mM sodium pyruvate. Cells were maintained in 175 cm^2 flasks in a 5% CO2, 37° C. humidified incubator. Cells were passaged routinely every 7 days and the media changed twice weekly.
(§2) One day prior to the experiments, cell cultures were trypsinised with a solution of 0.05% trypsin in PBS without Ca^2+ and Mg^2+ and containing 0.02% EDTA. Cells were seeded in 24-well culture dishes in complete medium and left to attach overnight. For MCF-7 cells, 3×10^5 cells were seeded, for all other cell lines, 2.5×10^5 cells were seeded.
(§3) On the day of the study, the cells were counted and the viability assessed in triplicate for each cell line. Before the incubation with radiolabelled FPM, cells were washed once with PBS containing Ca^2+ and Mg^2+ to remove all traces of the culture medium. The radiolabelled FPM was formulated in PBS containing Ca^2+ and Mg^2+. Aliquots of 500 μL (˜10 μCi) of freshly prepared FPM were added and the cells were incubated in triplicate at 37° C. for 2, 15, 30, 60, 120, 180 and 240 min. After stopping the tracer uptake with 1 mL of ice-cold PBS, cells were solubilised with 500 μL of 0.2N NaOH and the activity was measured with a gamma counter. The results were expressed as percent of applied dose per 1×10^5 cells.

[2] = test system: HT29 (colorectal adenocarcinoma) tumour cells; assay: Cell uptake study, HT29; format: cell-based, human; conditions: HT29 colon cell line
Description: as §1, with “weekly. […]” for “weekly.”
(§4) On the day of the study, the cells were counted and the viability assessed in triplicate for each cell line. […] After stopping the tracer uptake with 1 mL of ice-cold PBS, cells were solubilised with 500 μL of 0.2N NaOH and the activity was measured with a gamma counter. The results were expressed as percent of applied dose per 1×10^5 cells.

[3] = test system: sodium-independent L type transport system in tumour cell lines; assay: Competitive inhibition study of tracer uptake, all cell lines; format: cell-based, human; conditions: for tracer uptake in the presence of BCH: all cell lines, BCH 12.5 mmol/L aliquot, 30 min, 37° C.; for transport mechanism of cell uptake: from inhibition by BCH and MeAIB
Description: as §1, §2
Inhibitor studies were carried out to investigate the transport mechanism involved in the uptake of FPM in tumour cells. The following amino acid transport inhibitors were used; 2-amino-bicyclo[2.2.1]-heptane-2-carboxylic acid (BCH) and N-methyl-α-aminoisobutyric acid (MeAIB) for the sodium-independent L type transport system and the A type amino acid transport system respectively.
On the day of the study, the cells were counted and the viability assessed in triplicate for each cell line. Before the incubation with radiolabelled FPM, cells were washed once with PBS containing Ca^2+ and Mg^2+ to remove all traces of the culture medium. Aliquots of 400 μL of inhibitor (12.5 mmol/L in PBS with Ca^2+ and Mg^2+) or PBS (for controls) were added to cells prior to the addition of radiolabelled FPM. Aliquots of 100 μL (about 10 μCi) of freshly prepared FPM were added and the cells were incubated in triplicate at 37° C. for 30 min. After stopping the tracer uptake with 1 mL of ice-cold PBS, cells were solubilised with 500 μL of 0.2N NaOH and the activity was measured with a gamma counter. The results were expressed as percent of applied dose per 1×10^5 cells. The percentage of uptake in the treatment groups, relative to the control group was determined.

[4] = test system: A431 squamous cell carcinoma xenografts; assay: PET imaging of tracer uptake in A431 tumoured mice; format: in vivo, Balb/c Nude mice; conditions: intravenous, PET at 90 minutes post-tracer injection
Description: (§5) In vivo imaging studies were performed on a Phillips Allegro™ small animal imaging system in mice implanted with A431 squamous cell carcinoma and HT-29 colon carcinoma xenografts on the left leg of Balb/c Nude mice. Approximately 400 μCi of each of D and L ^18FPM in 100 μl saline were injected intravenously and PET imaging performed at 90 minutes post-tracer injection. A comparison with FDG (fluorodeoxyglucose) uptake was also performed.

[5] = test system: HT29 cells; assay: Competitive inhibition study of tracer uptake, HT29; format: cell-based, human; conditions: MeAIB 12.5 mmol/L aliquot, 30 min, 37° C.
Description: as §1, with “weekly. […]” for “weekly.”
(§6) On the day of the study, the cells were counted and the viability assessed in triplicate for each cell line. […] After stopping the tracer uptake with 1 mL of ice-cold PBS, cells were solubilised with 500 μL of 0.2N NaOH and the activity was measured with a gamma counter. The results were expressed as percent of applied dose per 1×10^5 cells. The percentage of uptake in the treatment groups, relative to the control group was determined.

[6] = test system: MiaPaCa2 cells; assay: Competitive inhibition study of tracer uptake, MiaPaCa2; format: cell-based, human; conditions: MeAIB 12.5 mmol/L aliquot, 30 min, 37° C.
Description: as §1, with “weekly. […]” for “weekly.”
as §6

[7] = test system: MiaPaCa2 human pancreatic carcinoma cell line; assay: Cell uptake study, MiaPaCa2; format: cell-based; conditions: MiaPaCa2 tumour cell line
Description: as §1, with “weekly. […]” for “weekly.”
as §4

[8] = test system: H460 cells; assay: Competitive inhibition study of tracer uptake, H460; format: cell-based, human; conditions: MeAIB 12.5 mmol/L aliquot, 30 min, 37° C.
Description: as §1, with “weekly. […]” for “weekly.”
as §6

[9] = test system: HT-29 colon carcinoma xenografts; assay: PET imaging of tracer uptake in HT29 tumoured mice; format: in vivo, Balb/c Nude mice; conditions: intravenous, PET at 90 minutes post-tracer injection
Description: as §5

[10] = test system: MCF-7 (breast adenocarcinoma) tumour cells; assay: Cell uptake study, MCF-7; format: cell-based, human; conditions: for uptake, rank among the cell lines: MCF-7 breast tumour cell line, 37° C., 2-240 min; for time for which uptake increased before staying at the same level: MCF-7 cell line
Description: as §1, §2, §3

[11] = cited from earlier work
[12] = Radiochemical purity and stability in aqueous formulations (HPLC); format: physicochemical
Description: The stability of [^18F]-L-FPHCys and [^18F]-D-FPHCys formulated in each of the following solutions: • 1) 5% EtOH/95% phosphate buffer, pH 6, 0.15 M (HLPC solvent) • 2) saline • 3) Dulbecco's phosphate buffered saline, pH 7 • 4) Phosphate buffer, pH 7. were analysed by HPLC using a Gemini 150×4.6 mm, 5 μm, eluting with 100% Phosphate Buffer, pH 11.5, 0.05 M at 1 mL/min, λ=226 nm.

Compound | uptake into tumour cells [1] | uptake, rank among the cell lines [2] | tracer uptake in the presence of BCH [3] | transport mechanism of cell uptake [3] | percent injected dose (% ID) in tumour [4] [%] | tumour to background ratio [4] | time of peak uptake [7] | tracer uptake in the presence of MeAIB, % of control uptake [8] [%] | percent injected dose (% ID) in tumour [9] [%] | tumour to background ratio [9] | uptake, rank among the cell lines [10] | time for which uptake increased before staying at the same level [10] [min] | also measured
N[C@@H](CCSCCC[18F])C(=O)O [[^18F]-L-FPHCys, S-(3-[^18F]fluoropropyl)-L-homocysteine] | high uptake | lowest uptake | significantly inhibited | predominantly taken up by cells via the sodium-independent L type transport system | 2.12 | 5.39 | 30 | 70 | 2.13 | 2.45 | highest | 120 | uptake compared with the other enantiomer ([1]; all cell lines): higher; tracer uptake in the presence of MeAIB, % of control uptake [5]: 84%; tracer uptake in the presence of MeAIB, % of control uptake [6]: 79%
OC[C@H]1OC(O)[C@H]([18F])[C@@H](O)[C@@H]1O (stereo partly drawn) [FDG, [^18F]Fluoro-2-deoxy-D-glucose, reference compound] |  |  |  |  | 5.84 | 3.33 |  |  | 2.37 | 2.11 |  |  | 
N[C@@H](CCSCC[18F])C(=O)O [[^18F]FEHCys, S-(2-[^18F]fluoroethyl)-L-homocysteine] |  |  |  |  |  |  |  |  |  |  |  |  | stability in aqueous systems [11]: considerable instability
S-(3-[^18F]fluoropropyl)-D-homocysteine [[^18F]-D-FPHCys] | high uptake | lowest uptake | significantly inhibited | predominantly taken up by cells via the sodium-independent L type transport system | 1.96 | 7.86 | 30 min | 76 | 0.75 | 2.10 | highest | 120 | % ROI of product peak, F18 chromatogram (radiochemical purity) ([12]; 5% EtOH/95% phosphate buffer, pH 6, 0.15 M (HPLC solvent), t=0): 99.74%; % ROI of product peak, F18 chromatogram (radiochemical purity) ([12]; 5% EtOH/95% phosphate buffer, pH 6, 0.15 M (HPLC solvent), t=4 h): 99.06%; % ROI of product peak, F18 chromatogram (radiochemical purity) ([12]; Dulbecco's phosphate buffered saline, pH 7, t=0): 98.97%; % ROI of product peak, F18 chromatogram (radiochemical purity) ([12]; Dulbecco's phosphate buffered saline, pH 7, t=4 h): 96.20%; % ROI of product peak, F18 chromatogram (radiochemical purity) ([12]; PBS (phosphate buffer, pH 7), t=0): 98.44%; % ROI of product peak, F18 chromatogram (radiochemical purity) ([12]; PBS (phosphate buffer, pH 7), t=4 h): 96.51%; % ROI of product peak, F18 chromatogram (radiochemical purity) ([12]; saline, t=0): 99.30%; % ROI of product peak, F18 chromatogram (radiochemical purity) ([12]; saline, t=4 h): 95.23%
N[C@@H](CCSCCC[18F])C(=O)O [[^18F]FPHCys, S-(3-[^18F]fluoropropyl)homocysteine] |  |  |  |  |  |  |  |  |  |  |  |  | stability in an aqueous environment compared with the S-ethyl homologue ([12]; aqueous environment): substantially more stable
